Our source for the relative viability values is the supplement of paper PMC10307832.

Test in all cases: relative viability (nuclei count vs DMSO), 5 days (fraction); higher = more cells survive
Compound in experiment [1]: CN(c1ncccc1CNc1nc(Nc2ccc3c(c2)CC(=O)N3)ncc1C(F)(F)F)S(C)(=O)=O + O=C(CCCCCCC(=O)Nc1ccccc1)NO [Vorinostat] (partner 1 µM)
In short, it runs like this:
(§1)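 Lung cancer cell lines in 1536-well plates were dosed by pin tool the day after seeding, either with one drug alone or with a fixed anchor-drug dose plus five library-drug doses (not always all listed) in √10 steps. After 5 days, cells were fixed and their nuclei stained in one step (final 0.05% Triton X-100, 1% formaldehyde, 1 ug/ml Hoechst), then counted on 4× images. Relative viability is the nuclei count in treated wells divided by that in vehicle wells. Values are medians of duplicate plates.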

Compound in experiment [2]: CN(c1ncccc1CNc1nc(Nc2ccc3c(c2)CC(=O)N3)ncc1C(F)(F)F)S(C)(=O)=O + Cc1nc(Nc2ncc(C(=O)Nc3c(C)cccc3Cl)s2)cc(N2CCN(CCO)CC2)n1 [Dasatinib] (partner 0.075 µM)
In short, it runs like this: as §1

Compound in experiment [3]: CN(c1ncccc1CNc1nc(Nc2ccc3c(c2)CC(=O)N3)ncc1C(F)(F)F)S(C)(=O)=O + CC1(C)CCC(c2ccc(Cl)cc2)=C(CN2CCN(c3ccc(C(=O)NS(=O)(=O)c4ccc(N[C@H](CCN5CCOCC5)CSc5ccccc5)c(S(=O)(=O)C(F)(F)F)c4)cc3)CC2)C1 [Navitoclax] (partner 0.5 µM)
Summed up: as §1

Compound in experiment [4]: CN(c1ncccc1CNc1nc(Nc2ccc3c(c2)CC(=O)N3)ncc1C(F)(F)F)S(C)(=O)=O + C[C@@H](Oc1cc(-c2cnn(C3CCNCC3)c2)cnc1N)c1c(Cl)ccc(F)c1Cl [Crizotinib] (partner 1 µM)
In short, it runs like this: as §1

Consider NCI-H2023, for which the relative viability was found to be 0.636 in experiment [1] (first compound 0.01 µM); 0.826 in experiment [1] (first compound 0.03162 µM); 0.666 in experiment [1] (first compound 0.1 µM); 0.709 in experiment [1] (first compound 0.3162 µM); 0.487 in experiment [1] (first compound 1 µM); 0.476 in experiment [2] (first compound 0.01 µM). Besides, the relative viability came out at 0.588 in experiment [2] (first compound 0.03162 µM); 0.428 in experiment [2] (first compound 0.1 µM); 0.432 in experiment [2] (first compound 0.3162 µM); 0.448 in experiment [2] (first compound 1 µM); 0.998 in experiment [3] (first compound 0.01 µM); 1.1 in experiment [3] (first compound 0.03162 µM). The relative viability in experiment [3] (first compound 0.1 µM) amounted to 0.985; in experiment [3] (first compound 0.3162 µM) it was 0.938; in experiment [3] (first compound 1 µM) it was 0.837; in experiment [4] (first compound 0.01 µM) it was 0.679; in experiment [4] (first compound 0.03162 µM), 0.766; in experiment [4] (first compound 0.1 µM) it was 0.682. For the same cell line, the results for the relative viability in experiment [4] (first compound 0.3162 µM) and in experiment [4] (first compound 1 µM) were 0.585 and 0.537, respectively.

Consider COR-L 105, for which the relative viability in experiment [1] (first compound 0.01 µM) is 0.813; in experiment [1] (first compound 0.03162 µM), 0.865; in experiment [1] (first compound 0.1 µM), 0.873; in experiment [1] (first compound 0.3162 µM) it was 0.855; in experiment [1] (first compound 1 µM) it was 0.619; in experiment [2] (first compound 0.01 µM), 0.274. Besides, the relative viability is 0.25 in experiment [2] (first compound 0.03162 µM); 0.343 in experiment [2] (first compound 0.1 µM); 0.282 in experiment [2] (first compound 0.3162 µM); 0.288 in experiment [2] (first compound 1 µM); 0.773 in experiment [3] (first compound 0.01 µM); 0.833 in experiment [3] (first compound 0.03162 µM). For the same cell line, the relative viability in experiment [3] (first compound 0.1 µM) was 0.869; in experiment [3] (first compound 0.3162 µM), 0.777; in experiment [3] (first compound 1 µM) it was 0.493; in experiment [4] (first compound 0.01 µM), 0.64; in experiment [4] (first compound 0.03162 µM) it was 0.649; in experiment [4] (first compound 0.1 µM), 0.779. Also, the values for the relative viability in experiment [4] (first compound 0.3162 µM) and in experiment [4] (first compound 1 µM) were 0.747 and 0.47, respectively.

In the case of NCI-H1734, the relative viability came to 0.809 in experiment [1] (first compound 0.01 µM); 0.818 in experiment [1] (first compound 0.03162 µM); 0.799 in experiment [1] (first compound 0.1 µM); 0.8 in experiment [1] (first compound 0.3162 µM); 0.781 in experiment [1] (first compound 1 µM); 0.423 in experiment [2] (first compound 0.01 µM). Also, the relative viability was 0.436 in experiment [2] (first compound 0.03162 µM); 0.399 in experiment [2] (first compound 0.1 µM); 0.339 in experiment [2] (first compound 0.3162 µM); 0.34 in experiment [2] (first compound 1 µM); 0.894 in experiment [3] (first compound 0.01 µM); 0.937 in experiment [3] (first compound 0.03162 µM). The relative viability in experiment [3] (first compound 0.1 µM) was 0.824; in experiment [3] (first compound 0.3162 µM), 0.866; in experiment [3] (first compound 1 µM) it was 0.707; in experiment [4] (first compound 0.01 µM) it was 0.684; in experiment [4] (first compound 0.03162 µM), 0.734; in experiment [4] (first compound 0.1 µM), 0.752. The values for the relative viability in experiment [4] (first compound 0.3162 µM) and in experiment [4] (first compound 1 µM) were 0.656 and 0.618, respectively.

For the cell line NCI-H3122, the relative viability in experiment [1] (first compound 0.01 µM) stood at 1.03; in experiment [1] (first compound 0.03162 µM), 0.963; in experiment [1] (first compound 0.1 µM), 1.04; in experiment [1] (first compound 0.3162 µM), 1; in experiment [1] (first compound 1 µM) it was 1.06; in experiment [2] (first compound 0.01 µM), 0.802. In addition, the relative viability in experiment [2] (first compound 0.03162 µM) was found to be 1.02; in experiment [2] (first compound 0.1 µM), 0.787; in experiment [2] (first compound 0.3162 µM) it was 0.746; in experiment [2] (first compound 1 µM) it was 0.764; in experiment [3] (first compound 0.01 µM), 1.07; in experiment [3] (first compound 0.03162 µM) it was 1.01. The relative viability in experiment [3] (first compound 0.1 µM) came to 0.941; in experiment [3] (first compound 0.3162 µM), 0.977; in experiment [3] (first compound 1 µM) it was 0.936; in experiment [4] (first compound 0.01 µM), 0.283; in experiment [4] (first compound 0.03162 µM), 0.289; in experiment [4] (first compound 0.1 µM), 0.283. For the same cell line, the relative viability in experiment [4] (first compound 0.3162 µM) came out at 0.278; in experiment [4] (first compound 1 µM), 0.241.

In the case of CAL-12T, the relative viability in experiment [1] (first compound 0.01 µM) turned out to be 0.91; in experiment [1] (first compound 0.03162 µM), 0.854; in experiment [1] (first compound 0.1 µM), 0.726; in experiment [1] (first compound 0.3162 µM), 0.767; in experiment [1] (first compound 1 µM) it was 0.708; in experiment [2] (first compound 0.01 µM), 0.35. The relative viability in experiment [2] (first compound 0.03162 µM) came to 0.213; in experiment [2] (first compound 0.1 µM), 0.268; in experiment [2] (first compound 0.3162 µM) it was 0.191; in experiment [2] (first compound 1 µM), 0.136; in experiment [3] (first compound 0.01 µM), 1.25; in experiment [3] (first compound 0.03162 µM), 1.1. Besides, the relative viability in experiment [3] (first compound 0.1 µM) came out at 1.27; in experiment [3] (first compound 0.3162 µM) it was 1.27; in experiment [3] (first compound 1 µM), 0.883; in experiment [4] (first compound 0.01 µM), 0.619; in experiment [4] (first compound 0.03162 µM), 0.538; in experiment [4] (first compound 0.1 µM) it was 0.576. Moreover, the relative viability was 0.566 in experiment [4] (first compound 0.3162 µM) and 0.593 in experiment [4] (first compound 1 µM).

As for HCC-78, the relative viability turned out to be 0.526 in experiment [1] (first compound 0.01 µM); 0.47 in experiment [1] (first compound 0.03162 µM); 0.431 in experiment [1] (first compound 0.1 µM); 0.414 in experiment [1] (first compound 0.3162 µM); 0.403 in experiment [1] (first compound 1 µM); 0.312 in experiment [2] (first compound 0.01 µM). Moreover, the relative viability in experiment [2] (first compound 0.03162 µM) is 0.33; in experiment [2] (first compound 0.1 µM), 0.325; in experiment [2] (first compound 0.3162 µM), 0.256; in experiment [2] (first compound 1 µM), 0.296; in experiment [3] (first compound 0.01 µM) it was 0.81; in experiment [3] (first compound 0.03162 µM) it was 0.845. Also, the relative viability in experiment [3] (first compound 0.1 µM) was 0.73; in experiment [3] (first compound 0.3162 µM), 0.632; in experiment [3] (first compound 1 µM), 0.674; in experiment [4] (first compound 0.01 µM) it was 0.379; in experiment [4] (first compound 0.03162 µM) it was 0.342; in experiment [4] (first compound 0.1 µM), 0.305. The relative viability was found to be 0.29 in experiment [4] (first compound 0.3162 µM) and 0.319 in experiment [4] (first compound 1 µM).

Consider NCI-H2085, for which the relative viability in experiment [1] (first compound 0.01 µM) was 0.816; in experiment [1] (first compound 0.03162 µM), 0.837; in experiment [1] (first compound 0.1 µM), 0.761; in experiment [1] (first compound 0.3162 µM), 0.734; in experiment [1] (first compound 1 µM), 0.691; in experiment [2] (first compound 0.01 µM), 0.215. For the same cell line, the relative viability in experiment [2] (first compound 0.03162 µM) came out at 0.232; in experiment [2] (first compound 0.1 µM) it was 0.178; in experiment [2] (first compound 0.3162 µM) it was 0.183; in experiment [2] (first compound 1 µM), 0.152; in experiment [3] (first compound 0.01 µM) it was 1.09; in experiment [3] (first compound 0.03162 µM), 1.17. For the same cell line, the relative viability in experiment [3] (first compound 0.1 µM) was 1.13; in experiment [3] (first compound 0.3162 µM), 1.19; in experiment [3] (first compound 1 µM), 0.934; in experiment [4] (first compound 0.01 µM), 0.94; in experiment [4] (first compound 0.03162 µM), 0.799; in experiment [4] (first compound 0.1 µM), 0.742. The relative viability stood at 0.778 in experiment [4] (first compound 0.3162 µM) and 0.648 in experiment [4] (first compound 1 µM).
